# Like-named read-outs stand apart in the source and are kept apart here.
# Columns and labels:
# [1] = XRD characterization of solid phase isolated from solubility suspension; format: physicochemical; conditions: solid phase from solubility measurement, Prisma HT buffer
# Description: X-ray powder diffraction (XRD) measurements were performed by X’pert Pro MPD X-ray diffractometer (PANalytical B.v., Armelo, The Netherlands).
# [2] = UV/pH titration in MeOH-water mixtures with Yasuda–Shedlovsky extrapolation; format: physicochemical; conditions: methanol-water mixtures, UV/pH titration in MeOH-water mixture, 25 °C, aqueous value by Yasuda–Shedlovsky extrapolation
# Description: The cosolvent dissociation constants (psKa values) were determined in various MeOH-water mixtures between 8–34% (w/w) under the same experimental conditions as in aqueous medium. The aqueous pKa values were calculated from the measured psKa values in methanol-water solutions using the Yasuda–Shedlovsky extrapolation method. The Yasuda–Shedlovsky procedure is based on the linear relation between psKa and the dielectric constant (ε) of the cosolvent mixture:(1) psKa+log[H2O]=a/ε+b where ε is the dielectric constant, and log[H2O] is the molar water concentration of the given methanol-water mixture.
# [3] = 1H NMR/pH titration (pKa determination); format: physicochemical; conditions: 5 v/v % D2O-95 v/v % H2O, NMR-pH titration, 25 °C, I = 0.15 M
# Description: All NMR measurements were performed on a Varian 600 MHz spectrometer (Varian Inc., Palo Alto, CA, USA) with a dual 5 mm inverse-detection gradient probehead at 25 °C, constant ionic strength (I = 0.15 M) and using 5 v/v % D2O–95 v/v % H2O as solvent. The spectra were referenced to internal DSS (sodium 3-(trimethylsilyl)-1-propanesulfonate) as chemical shift reference. The pH of the samples (600 μL)were adjusted with concentrated HCl and NaOH and determined by in situ internal indicator molecules optimized for NMR [39, 40]. The concentration of telmisartan was below 1 mM during in the titration solution, due to its poor solubility, but all the peaks were still clearly visible. The water resonance was diminished by a double pulse field gradient spin echo sequence (number of transients = 16, number of points = 16,384, acquisition time = 3.33 s, relaxation delay = 1.5 s).
# In order to obtain the acid dissociation constants from the chemical shifts–pH profiles, the software Origin Pro 8 (OriginLab Corp., Northampton, MA, USA) was used to perform non-linear regression with the following function:(2) δobs(pH)=δX^−+∑i=1nδHiX^i−1×10^logβi−i×pH/1+∑i=1n10^logβi−i×pH where δX^- is the chemical shift of the unprotonated ligand (X^−), δHiX^i-1 values stand for the chemical shifts of successively protonated species of X^−, n is the maximum number of protons that can bind to the unprotonated ligand, β is the cumulative macroconstant. The standard deviations of logβ values from the regression analyses were used to calculate the Gaussian propagation of uncertainty for the other equilibrium constants.
# [4] = Analysis of solubility-pH data with pDISOL-X; format: physicochemical; conditions: from thermodynamic solubility-pH data in distilled water
# Description: For the analysis of solubility-pH profile, the pDISOL-X^TM program (in-ADME Research, NY, USA) was used. The mathematical approach used in the program for log S-pH simulation-refinement has been described by Völgyi et al.. The program has been applied in several other recent studies.
# [5] = between pH 3–8; cited from earlier work
# [6] = UV/pH titration in aqueous medium (pKa determination); format: physicochemical; conditions: for pKa: aqueous 0.15 M KCl solution, UV/pH titration in aqueous medium, I = 0.15 M KCl; for predominant protonated macrospecies: calculated from pKa values at 37 °C
# Description: The pKa values of telmisartan were determined by UV-pH titration using the D-PAS™ ultra-violet spectrophotometer attached to a GLpKa instrument (Sirius Analytical Instruments Ltd., Forest Row, UK). First, a stock solution of TEL was prepared in methanol (2 mg/mL). […] Spectra were registered in the 200–700 nm region. The pKa values were calculated by RefinementPro^TM software (Sirius Analytical Instruments Ltd., Forest Row, UK).
# [7] = Thermodynamic (equilibrium) solubility, saturation shake-flask, in distilled water; format: physicochemical
# Description: The methods for thermodynamic solubility measurements can be found in Baka et al. (measured amount of TEL: 1 mg/mL, 37 °C, 6 h strirring, 18 h sedimentation). During the thermodynamic solubility measurements in Prisma buffers the concentration of the API was determined without filtering the solutions by the Rainbow Dynamic Dissolution Monitor instrument (Pion Inc., Billerica, MA, USA). In the case of solubility measurements in distilled water, the concentration of the API after filtration with PVDF membrane (0.22 µm) was determined by Jasco V-550 UV–vis spectrophotometer (Jasco Inc., Easton, MD, USA).
# [8] = ESI mass spectrometry of saturated solutions (aggregation); format: physicochemical; conditions: buffer-free saturated solution
# Description: An ESI- triple quadrupole-MS/MS instrument (4000 Q TRAP) from Applied Biosystems (Foster City, CA, USA) was used for the MS and MS/MS measurements. Compounds were analyzed in the positive mode, and the settings were ion spray voltage 4500 V, ion source gas (N2) 16 arbitrary units (a.u.), curtain gas (N2) 10 a.u., declustering potential 20 V, and entrance potential 10 V. For MS/MS experiments, the settings were collision gas (N2) medium, and collision energy 51 V. Saturated samples were infused at a rate of 6 μL/min using Harvard Apparatus Syringe pump (Holliston, MA, USA). Analyst 1.4.2. software from Applied Biosystems (Foster City, CA, USA) was used for data acquisition and processing.
# [9] = read-out: pKa1 ± SD (Carboxyl Group)
# [10] = read-out: pKa2 ± SD (Middle Benzimidazole Ring)
# [11] = read-out: pKa3 ± SD (Terminal Benzimidazole Ring)
smiles,measurement,setting,value
"CCCc1nc2c(C)cc(-c3nc4ccccc4n3C)cc2n1Cc1ccc(-c2ccccc2C(=O)O)cc1 [Telmisartan, telmisartan]",XRD Characterization,[1]; pH 1.60,Crystalline
same,XRD Characterization,[1]; pH 2.15,Crystalline
same,XRD Characterization,[1]; pH 2.50,Crystalline
same,XRD Characterization,[1]; pH 3.08,Crystalline
same,XRD Characterization,[1]; pH 3.82,Crystalline
same,XRD Characterization,[1]; pH 6.50,Crystalline
same,XRD Characterization,[1]; pH 7.88,Crystalline
same,XRD Characterization,[1]; pH 9.40,amorphous background
same,XRD Characterization,[1]; pH 9.79,amorphous background
same,XRD Characterization,[1]; pH 11.74,Amorphous
same,pKa,[2]; [9],3.03 ± 0.06
same,pKa,[2]; [10],4.19 ± 0.07
same,pKa,[2]; [11],6.14 ± 0.1
same,pKa,[3]; [9],3.21 ± 0.14
same,pKa,[3]; [10],4.28 ± 0.07
same,pKa,[3]; [11],6.08 ± 0.04
same,dimerization constant logK21,[4],6.48 ± 0.19
same,dimerization constant logK22,[4],6.35 ± 0.47
same,solubility,"[4]; thermodynamic from solid, read-out: calculated intrinsic solubility logS0 (converted)",0.302 µM
same,solubility,[5],low solubility
same,pKa,"[6]; 25 °C, read-out: pKa1 ± SD (Carboxyl Group)",3.03 ± 0.04
same,pKa,"[6]; 25 °C, read-out: pKa2 ± SD (Middle Benzimidazole Ring)",4.22 ± 0.09
same,pKa,"[6]; 25 °C, read-out: pKa3 ± SD (Terminal Benzimidazole Ring)",6.08 ± 0.07
same,pKa,"[6]; 37 °C, read-out: pKa1 ± SD (Carboxyl Group)",3.04 ± 0.03
same,pKa,"[6]; 37 °C, read-out: pKa2 ± SD (Middle Benzimidazole Ring)",4.08 ± 0.02
same,pKa,"[6]; 37 °C, read-out: pKa3 ± SD (Terminal Benzimidazole Ring)",5.91 ± 0.05
same,predominant protonated macrospecies,[6]; gastric pH (pH 1–2),dication (XH3^2+)
same,predominant protonated macrospecies,[6]; intestinal pH (pH 5–6.5),monoprotonated (XH) and the unprotonated anionic (X^−)
same,predominant protonated macrospecies,[6]; pH of plasma (pH 7.4),anionic (X^−)
same,solubility thermodynamic at 6 h,"[7]; pH 2.66, 37 °C, read-out: Equilibrium solubility S ± SD",10.8 ± 0.53 µg/mL
same,solubility thermodynamic at 6 h,"[7]; pH 2.66, 37 °C, read-out: Equilibrium solubility logS ± SD (converted)",20.9 µM
same,solubility thermodynamic at 6 h,"[7]; thermodynamic from solid, pH 2.16, 37 °C, read-out: Equilibrium solubility S ± SD",148 ± 5.48 µg/mL
same,solubility thermodynamic at 6 h,"[7]; thermodynamic from solid, pH 2.16, 37 °C, read-out: Equilibrium solubility logS ± SD (converted)",288 µM
same,solubility thermodynamic at 6 h,"[7]; thermodynamic from solid, pH 3.08, 37 °C, read-out: Equilibrium solubility S ± SD",3.4 ± 0.49 µg/mL
same,solubility thermodynamic at 6 h,"[7]; thermodynamic from solid, pH 3.08, 37 °C, read-out: Equilibrium solubility logS ± SD (converted)",6.61 µM
same,solubility thermodynamic at 6 h,"[7]; thermodynamic from solid, pH 3.98, 37 °C, read-out: Equilibrium solubility S ± SD",0.36 ± 0.12 µg/mL
same,solubility thermodynamic at 6 h,"[7]; thermodynamic from solid, pH 3.98, 37 °C, read-out: Equilibrium solubility logS ± SD (converted)",0.692 µM
same,solubility thermodynamic at 6 h,"[7]; thermodynamic from solid, pH 7.22, 37 °C, read-out: Equilibrium solubility S ± SD",3.65 ± 0.11 µg/mL
same,solubility thermodynamic at 6 h,"[7]; thermodynamic from solid, pH 7.22, 37 °C, read-out: Equilibrium solubility logS ± SD (converted)",7.08 µM
same,solubility thermodynamic at 6 h,"[7]; thermodynamic from solid, pH 7.4, 37 °C, read-out: Equilibrium solubility S ± SD",13.8 ± 2.81 µg/mL
same,solubility thermodynamic at 6 h,"[7]; thermodynamic from solid, pH 7.4, 37 °C, read-out: Equilibrium solubility logS ± SD (converted)",26.9 µM
same,dimerization in solution by MS,"[8]; higher pHs (e.g., pH 10)",no dimerization could be observed
same,dimerization in solution by MS,[8]; pH range 3–8,peak corresponding to the dimeric structure could be detected

# From article PMC9412861, “Understanding the pH Dependence of Supersaturation State—A Case Study of Telmisartan” (Pharmaceutics, 2022)
